Converted amounts (≈) assume the structure as drawn. Positions of bridges follow the written chain, without caps; N, C: chain ends. Non-standard residues stand in square brackets, D forms with d. Residues, ends and D or L forms follow the SMILES beside them. *: point of attachment. Benzoyl(4-Et) = CCc1ccc(C(=O)*)cc1; X18 = O=C(c1ccc(Cl)c(C(F)(F)F)c1)*; X15 = O=C(c1ccc(Cl)c(F)c1)*; Dab = NCC[C@H](N)C(=O)O; Abu = CC[C@H](N)C(=O)O; Dap = NC[C@H](N)C(=O)O
Key:
Enterobacter cloacae = test system: Enterobacter cloacae
Method in brief: (§1)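 Broth microdilution MICs following CLSI standards in cation-adjusted Mueller-Hinton broth. Lipopeptides tested as TFA salts; polymyxin B sulphate served as control.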

Acinetobacter baumannii = test system: Acinetobacter baumannii
Method in brief: as §1

Pseudomonas aeruginosa = test system: Pseudomonas aeruginosa
Method in brief: as §1

Klebsiella pneumoniae = test system: Klebsiella pneumoniae
Method in brief: as §1

P. aeruginosa ATCC 27853 = test: In vivo efficacy in mouse blood infection model (neutropenic Swiss mice); details: compound, free base 4 mg/kg intravenously 2 h after inoculation, blood at 4 h
Procedure: P. aeruginosa ATCC 27853, A. baumannii ATCC 19606 and K. pneumoniae FADDI-KP032 were subcultured on nutrient agar plates. One colony of each bacterial strain was dispersed in 10-mL CAMHB and incubated overnight. On day 2, an aliquot (0.2 mL) of each overnight culture suspension was dispersed in 20-mL CAMHB and incubated for 1.5-2.5 h for production of early log-phase growth bacterial culture. The bacteria in the early log-phase growth suspension were concentrated by centrifugation (3,220 g for 10 min) and re-suspended in sterile 0.9% saline for inoculation into mice. The bacterial cell concentration (colony forming unit [CFU]/mL) in saline was estimated by determining the optical density (OD) of the suspension at 600 nm, and confirmed by plating the suspension on nutrient agar plates. Swiss mice (22 to 28 g) were rendered neutropenic by injecting two doses of cyclophosphamide intraperitoneally, −4 day (150 mg/kg) and −1 day (100 mg/kg) prior to inoculation. Bloodstream infection was established by injecting intravenously 50 μL of early log-phase bacterial suspension (10^8-10^9 CFU/mL). The exact injection volume for each bacterial suspension was calculated based upon the OD value of the bacterial suspension and the desired inoculum for each isolate.
Solutions for administration of colistin, polymyxin B or the compounds were prepared at a concentration of 1 mg (free base) per mL in sterile 0.9% saline. At 2 h after inoculation, a mouse in the treatment groups was injected intravenously with one of the above solutions at 4 μL/g body weight (BW) (i.e. free base 4 mg/kg BW), while the same volume of saline was injected into the control mice. At 0 h or at 4 h after the administration of antibacterial drug or saline (control), animals were euthanised by inhalation of overdose isoflurane. The skin on the chest and fore-paws of each animal was thoroughly cleansed with 70% ethanol and Betadine®. The blood was collected via cardiac puncture using a 1-mL syringe rinsed with heparin (5,000 IU/mL), diluted serially in sterile 0.9% saline and plated on nutrient agar plates using a spiral plater.
The agar plates were incubated at 37° C. overnight. The bacterial colonies on the plate were counted and CFU/mL of the blood was calculated. The log10 CFU/mL of blood in each mouse was calculated. The in vivo activity of the compounds against the bacteria was calculated as the difference of the log10 CFU/mL values between the treated mice and the control mice at 4 h (Δ log=log10 (treated)CFU/mL−log10 (control)CFU/mL).
Any compound showing a decrease in bacterial loading (Δ log) of ≥2 at 4 h is considered to have good in vivo efficacy in this initial screening model.

Compound | Minimum inhibitory concentration, Ec FADDI-EC001 (Enterobacter cloacae) [µg/mL] | Minimum inhibitory concentration, Ec FADDI-EC003 (Enterobacter cloacae) [µg/mL] | Minimum inhibitory concentration, Ec FADDI-EC006 (Enterobacter cloacae) [µg/mL] | MIC (Acinetobacter baumannii) [µg/mL] | Minimum inhibitory concentration, Ab A ATCC 17978 (Acinetobacter baumannii) [µg/mL] | Minimum inhibitory concentration, Ab ATCC 19606 (Acinetobacter baumannii) [µg/mL] | Minimum inhibitory concentration, Ab FADDI-AB034 (Acinetobacter baumannii) [µg/mL] | MIC (Pseudomonas aeruginosa) [µg/mL] | Minimum inhibitory concentration, Pa ATCC 27853 (Pseudomonas aeruginosa) [µg/mL] | Minimum inhibitory concentration, Pa FADDI-PA022 (Pseudomonas aeruginosa) [µg/mL] | Minimum inhibitory concentration, Pa FADDI-PA025 (Pseudomonas aeruginosa) [µg/mL] | MIC (Klebsiella pneumoniae) [µg/mL] | Δ log (Treated-Control at 4 h) (P. aeruginosa ATCC 27853)
CCc1ccc(C(=O)N[C@@H](CCN)C(=O)N[C@H](C(=O)N[C@@H](CN)C(=O)N[C@H]2CCNC(=O)[C@H]([C@@H](C)O)NC(=O)[C@H](CCN)NC(=O)[C@H](CCN)NC(=O)[C@H](CC)NC(=O)[C@@H](CC(C)C)NC(=O)[C@H](CCN)NC2=O)[C@@H](C)O)cc1 [Compound 100] ({Benzoyl(4-Et)}-[Dab]T[Dap][Dab][Dab][dL][Abu][Dab][Dab]T; lactam 4-C) | 0.25 (≈ 0.223 µM) | 0.5 (≈ 0.447 µM) | 0.5 (≈ 0.447 µM) | 2 (≈ 1.79 µM) | 1 (≈ 0.893 µM) | 2 (≈ 1.79 µM) | 1 (≈ 0.893 µM) | 0.5 (≈ 0.447 µM) | 0.5 (≈ 0.447 µM) | 0.5 (≈ 0.447 µM) | 2 (≈ 1.79 µM) | 0.5 (≈ 0.447 µM) | −3.83 (−3.83) log10 CFU/mL
CC[C@@H]1NC(=O)[C@@H](CC(C)C)NC(=O)[C@H](CCN)NC(=O)[C@@H](NC(=O)[C@H](CN)NC(=O)[C@@H](NC(=O)[C@H](CCN)NC(=O)c2ccc(Cl)c(F)c2)[C@@H](C)O)CCNC(=O)[C@H]([C@@H](C)O)NC(=O)[C@H](CCN)NC(=O)[C@H](CCN)NC1=O [Compound 107] (X15-[Dab]T[Dap][Dab][Dab][dL][Abu][Dab][Dab]T; lactam 4-C) | 0.25 (≈ 0.219 µM) | 0.25 (≈ 0.219 µM) | 0.25 (≈ 0.219 µM) | 2 (≈ 1.75 µM) | 0.5 (≈ 0.437 µM) | 2 (≈ 1.75 µM) | 0.25 (≈ 0.219 µM) | 0.5 (≈ 0.437 µM) | 0.5 (≈ 0.437 µM) | 0.5 (≈ 0.437 µM) | 2 (≈ 1.75 µM) | 0.25 (≈ 0.219 µM) | −2.98 log10 CFU/mL
CC[C@@H]1NC(=O)[C@@H](CC(C)C)NC(=O)[C@H](CCN)NC(=O)[C@@H](NC(=O)[C@H](CN)NC(=O)[C@@H](NC(=O)[C@H](CCN)NC(=O)c2ccc(Cl)c(C(F)(F)F)c2)[C@@H](C)O)CCNC(=O)[C@H]([C@@H](C)O)NC(=O)[C@H](CCN)NC(=O)[C@H](CCN)NC1=O [Compound 112] (X18-[Dab]T[Dap][Dab][Dab][dL][Abu][Dab][Dab]T; lactam 4-C) | 0.5 (≈ 0.419 µM) | 0.25 (≈ 0.209 µM) | 0.5 (≈ 0.419 µM) | 0.25 (≈ 0.209 µM) | <0.125 | 0.25 (≈ 0.209 µM) | 0.25 (≈ 0.209 µM) | 0.5 (≈ 0.419 µM) | 0.5 (≈ 0.419 µM) | 0.5 (≈ 0.419 µM) | 1 (≈ 0.838 µM) | 0.5 (≈ 0.419 µM) | −3.15 log10 CFU/mL
